Each molecule was assayed against T1, recombinant human GR (Homo sapiens, UniProt P04150) (assay: Human Glucocorticoid Receptor (GR) Assay (fluorescence polarization, Panvera/Invitrogen kit)). Conditions: fluorescence polarization; GS Red tracer; 2 hours at room temperature; 100% control 10 μM Dexamethasone; read-out: Inhibition of GR binding, IC50.
T1 construct: purchased Panvera/Invitrogen P2812 (kit P2893)
T1 sequence (P04150 1-777): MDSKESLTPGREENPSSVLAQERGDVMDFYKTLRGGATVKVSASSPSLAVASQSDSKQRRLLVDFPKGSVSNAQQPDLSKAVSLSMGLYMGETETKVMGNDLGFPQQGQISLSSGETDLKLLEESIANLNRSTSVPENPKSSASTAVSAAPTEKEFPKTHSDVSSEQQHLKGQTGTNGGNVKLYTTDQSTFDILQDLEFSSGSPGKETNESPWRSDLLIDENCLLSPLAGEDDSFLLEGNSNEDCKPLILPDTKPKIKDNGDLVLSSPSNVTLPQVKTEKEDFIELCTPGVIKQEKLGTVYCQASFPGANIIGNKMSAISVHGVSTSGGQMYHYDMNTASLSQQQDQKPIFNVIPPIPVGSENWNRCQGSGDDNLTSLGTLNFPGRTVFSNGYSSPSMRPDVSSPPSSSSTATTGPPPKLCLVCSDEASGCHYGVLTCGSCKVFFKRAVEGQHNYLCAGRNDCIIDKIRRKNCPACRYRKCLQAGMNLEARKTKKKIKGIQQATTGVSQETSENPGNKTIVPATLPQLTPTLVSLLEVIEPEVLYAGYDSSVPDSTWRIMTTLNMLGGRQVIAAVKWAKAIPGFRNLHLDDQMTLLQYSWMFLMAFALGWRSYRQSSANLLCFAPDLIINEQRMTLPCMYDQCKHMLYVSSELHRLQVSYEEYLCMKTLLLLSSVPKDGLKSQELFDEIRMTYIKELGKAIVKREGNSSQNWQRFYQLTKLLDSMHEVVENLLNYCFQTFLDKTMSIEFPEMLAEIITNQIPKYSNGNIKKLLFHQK
Assay type: binding
Method in brief: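 Fluorescence polarization competition with recombinant GR and GS Red fluorescent ligand plus stabilizing peptide and DTT in potassium phosphate/sodium molybdate/EDTA buffer with DMSO. Incubated 2 hours at room temperature in the dark; 0% control DMSO, 100% control 10 μM dexamethasone.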

Row | Structure (SMILES) | IC50 [nM]
1 | C[C@]12Cc3cnn(-c4ccc(F)c(CF)c4)c3C=C1CC[C@@H]1[C@@H]2[C@@H](O)C[C@@]2(C)[C@H]1CC[C@]2(OC(=O)c1ccco1)C(=O)SCF [Example 76, (1R,3aS,3bS,10aR,10bS,11S,12aS)-7-[4-Fluoro-3-(fluoromethyl)phenyl]-1-{[(fluoromethyl)thio]carbonyl}-11-hydroxy-10a,12a-dimethyl-1,2,3,3a,3b,4,5,7,10,10a,10b,11,12,12a-tetradecahydrocyclopenta[5,6]naphtho[1,2]-indazol-1-yl furan-2-carboxylate] | 35
2 | C=CCOCc1cc(-n2ncc3c2C=C2CC[C@@H]4[C@H]([C@@H](O)C[C@@]5(C)[C@H]4CC[C@]5(OC(=O)c4ccco4)C(=O)SCC#N)[C@@]2(C)C3)ccc1F [Example 77, (1R,3aS,3bS,10aR,10bS,11S,12aS)-1-{[(Cyanomethyl)thio]carbonyl}-7-{4-fluoro-3-[(prop-2-en-1-yloxy)methyl]phenyl}-11-hydroxy-10a,12a-dimethyl-1,2,3,3a,3b, 4,5,7,10,10a,10b,11,12,12a-tetradecahydrocyclopenta[5,6]naphtho[1,2-f]indazol-1-yl furan-2-carboxylate] | 22
3 | C=CCOCc1cc(-n2ncc3c2C=C2CC[C@@H]4[C@H]([C@@H](O)C[C@@]5(C)[C@H]4CC[C@]5(OC(=O)c4ccco4)C(=O)NC)[C@@]2(C)C3)ccc1F [Example 78, (1R,3aS,3bS,10aR,10bS,11S,12aS)-7-{4-Fluoro-3-[(prop-2-en-1-yloxy)methyl]phenyl}-11-hydroxy-10a,12a-dimethyl-1-(methylcarbamoyl)-1,2,3,3a,3b,4,5,7,10,10a,10b,11,12,12a-tetradecahydrocyclopenta[5,6]naphtho[1,2-f]indazol-1-yl furan-2-carboxylate] | 12
4 | C[C@]12Cc3cnn(-c4ccc(F)c(CO)c4)c3C=C1CC[C@@H]1[C@@H]2[C@@H](O)C[C@@]2(C)[C@H]1CC[C@]2(OC(=O)c1ccco1)C(=O)OCC#N [Example 79, Cyanomethyl(1R,3aS,3bS,10aR,10bS,11S,12aS)-7-[4-fluoro-3-(hydroxymethyl)phenyl]-1-[(furan-2-ylcarbonyl)oxy]-11-hydroxy-10a,12a-dimethyl-1,2,3,3a,3b,4,5,7,10,10a,10b,11,12,12a-tetradecahydrocyclopenta[5,6]naphtho[1,2-f]indazole-1-carboxylate] | 4.2
5 | C[C@]12Cc3cnn(-c4ccc(F)c(CO)c4)c3C=C1CC[C@@H]1[C@@H]2[C@@H](O)C[C@@]2(C)[C@H]1CC[C@]2(OC(=O)c1ccco1)C(=O)SCC#N [Example 80, (1R,3aS,3bS,10aR,10bS,11S,12aS)-1-{[(Cyanomethyl)thio]carbonyl}-7-[4-fluoro-3-(hydroxymethyl)phenyl]-11-hydroxy-10a,12a-dimethyl-1,2,3,3a,3b,4,5,7,10,10a,10b,11,12,12a-tetradecahydrocyclopenta[5,6]naphtho[1,2]-indazol-1-yl furan-2-carboxylate] | 4.2
6 | C[C@]12Cc3cnn(-c4ccc(F)c(CO)c4)c3C=C1CC[C@@H]1[C@@H]2[C@@H](O)C[C@@]2(C)[C@H]1CC[C@]2(OC(=O)c1ccco1)C(=O)SCF [Example 81, (1R,3aS,3bS,10aR,10bS,11S,12aS)-7-[4-Fluoro-3-(hydroxymethyl)phenyl]-1-{[(fluoromethyl)thio]carbonyl}-11-hydroxy-10a,12a-dimethyl-1,2,3,3a,3b,4,5,7,10,10a,10b,11,12,12a-tetradecahydrocyclopenta[5,6]naphtho[1,2-f]indazol-1-yl furan-2-carboxylate] | 4.5
7 | CSCSC(=O)[C@@]1(OC(=O)c2ccco2)CC[C@H]2[C@@H]3CCC4=Cc5c(cnn5-c5ccc(F)cc5)C[C@]4(C)[C@H]3[C@@H](O)C[C@@]21C [Example 82, (1R,3aS,3bS,10aR,10bS,11S,12aS)-7-(4-Fluorophenyl)-11-hydroxy-10a,12a-dimethyl-1-({[(methylsulfanyl)methyl]sulfanyl}carbonyl)-1,2,3,3a,3b,4,5,7,10,10a,10b,11,12,12a-tetradecahydrocyclopenta[5,6]naphtho[1,2-f]indazol-1-yl furan-2-carboxylate] | 8.5
8 | C[C@]12Cc3cnn(-c4ccc(F)cc4)c3C=C1CC[C@@H]1[C@@H]2[C@@H](O)C[C@@]2(C)[C@H]1CC[C@]2(OC(=O)c1ccco1)C(=O)SCSC#N [Example 83, (1R,3aS,3bS,10aR,10bS,11S,12aS)-7-(4-Fluorophenyl)-11-hydroxy-10a,12a-dimethyl-1-{[(thiocyanatomethyl)sulfanyl]carbonyl}-1,2,3,3a,3b,4,5,7,10,10a,10b,11,12,12a-tetradecahydrocyclopenta[5,6]naphtho[1,2-f]indazol-1-yl furan-2-carboxylate] | 18
9 | C[C@]12Cc3cnn(-c4ccc(F)cc4)c3C=C1CC[C@@H]1[C@@H]2[C@@H](O)C[C@@]2(C)[C@H]1CC[C@]2(OC(=O)c1ccco1)C(=O)SCC(O)CO (stereo partly drawn) [Example 84, (1R,3aS,3bS,10aR,10bS,11S,12aS)-1-{[(2,3-Dihydroxypropyl)sulfanyl]carbonyl}-7-(4-fluorophenyl)-11-hydroxy-10a,12a-dimethyl-1,2,3,3a,3b,4,5,7,10,10a,10b,11,12,12a-tetradecahydrocyclopenta[5,6]naphtho[1,2-f]indazol-1-yl furan-2-carboxylate] | 5
10 | COCCCSC(=O)[C@@]1(OC(=O)c2ccco2)CC[C@H]2[C@@H]3CCC4=Cc5c(cnn5-c5ccc(F)cc5)C[C@]4(C)[C@H]3[C@@H](O)C[C@@]21C [Example 85, (1R,3aS,3bS,10aR,10bS,11S,12aS)-7-(4-Fluorophenyl)-11-hydroxy-{[(3-methoxypropyl)sulfanyl]carbonyl}-10a,12a-dimethyl-1,2,3,3a,3b,4,5,7,10,10a,10b,11,12,12a-tetradecahydrocyclopenta[5,6]naphtho[1,2-f]indazol-1-yl furan-2-carboxylate] | 6.3
11 | C[C@]12Cc3cnn(-c4ccc(F)cc4)c3C=C1CC[C@@H]1[C@@H]2[C@@H](O)C[C@@]2(C)[C@H]1CC[C@]2(OC(=O)c1ccco1)C(=O)SCCCC#N [Example 86, (1R,3aS,3bS,10aR,10bS,11S,12aS)-1-{[(3-Cyanopropyl)sulfanyl]carbonyl}-7-(4-fluorophenyl)-11-hydroxy-10a,12a-dimethyl-1,2,3,3a,3b,4,5,7,10,10a,10b,11,12,12a-tetradecahydrocyclopenta[5,6]naphtho[1,2-f]indazol-1-yl furan-2-carboxylate] | 3.5
12 | CC(=O)OCC(=O)CSC(=O)[C@@]1(OC(=O)c2ccco2)CC[C@H]2[C@@H]3CCC4=Cc5c(cnn5-c5ccc(F)cc5)C[C@]4(C)[C@H]3[C@@H](O)C[C@@]21C [Example 87, (1R,3aS,3bS,10aR,10bS,11S,12aS)-1-({[3-(Acetyloxy)-2-oxopropyl]sulfanyl}carbonyl)-7-(4-fluorophenyl)-11-hydroxy-10a,12a-dimethyl-1,2,3,3a,3b,4,5,7,10,10a,10b,11,12,12a-tetradecahydrocyclopenta[5,6]naphtho[1,2-f]indazol-1-yl furan-2-carboxylate] | 5.3
13 | C=C(CSC(=O)[C@@]1(OC(=O)c2ccco2)CC[C@H]2[C@@H]3CCC4=Cc5c(cnn5-c5ccc(F)cc5)C[C@]4(C)[C@H]3[C@@H](O)C[C@@]21C)OCOC [Example 88, (1R,3aS,3bS,10aR,10bS,11S,12aS)-7-(4-fluorophenyl)-11-hydroxy-1-({[2-(methoxymethoxy)prop-2-en-1-yl]sulfanyl}carbonyl)-10a,12a-dimethyl-1,2,3,3a,3b,4,5,7,10,10a,10b,11,12,12a-tetradecahydrocyclopenta[5,6]naphtho[1,2-f]indazol-1-yl furan-2-carboxylate] | 13
14 | CC(=O)CSC(=O)[C@@]1(OC(=O)c2ccco2)CC[C@H]2[C@@H]3CCC4=Cc5c(cnn5-c5ccc(F)cc5)C[C@]4(C)[C@H]3[C@@H](O)C[C@@]21C [Example 89, (1R,3aS,3bS,10aR,10bS,11S,12aS)-7-(4-Fluorophenyl)-11-hydroxy-10a,12a-dimethyl-1-{[(2-oxopropyl)sulfanyl]carbonyl}-1,2,3,3a,3b,4,5,7,10,10a,10b,11,12,12a-tetradecahydrocyclopenta[5,6]naphtho[1,2-f]indazol-1-yl furan-2-carboxylate] | 6.9
